Our source for the IC50 values is patent US10793563B2, “GCN2 inhibitors and uses thereof” (Merck Patent GmbH, priority 2018, dated 2020).

SMILES strings stand for the structures. A value given as a limit tells only on which side of the number the result lay.

The assay deals with GCN2 kinase (Homo sapiens (Human), UniProt Q9P2K8). As to the kind of experiment: GCN2 Enzyme Inhibition Assay (Transcreener ADP2 fluorescence polarization). It counts as biochemical. Conditions: 280 μM ATP, 200 μM (RS)7 peptide, 4 nM GCN2, 25° C. The procedure: Compounds were screened for their ability to inhibit GCN2 kinase activity using a Transcreener® ADP^2 fluorescence polarization assay that detects ADP levels (BellBrook Labs, WI). Assays were carried out in a buffer consisting of 25 mM Tris-HCl (pH 7.5), 50 mM NaCl, 10 mM MgCl2 and 1 mM DTT. […] Assays were carried out at 25° C. in the presence of a (typical) final concentration of 4 nM GCN2 kinase. An assay buffer containing GCN2 kinase and (RS)7 was prepared. […] The plate was incubated for 10 minutes at 25° C. prior to the addition of 4.7 μL of ATP stock buffer to initiate the enzyme reaction. The reaction was allowed to proceed for 1 hour at 25° C., prior to the addition of 10 μL detection buffer (consisting of appropriate concentrations of ADP^2 antibody and ADP Alexa633 tracer in 1× stop and detect buffer as supplied by BellBrook Labs). […] Percentage inhibition of enzyme activity was then calculated at each compound dose. IC50 and Ki(app) (using known assay and kinetic parameters) values were calculated from percentage inhibition data using a non-linear, tight-binding algorithm. All data analysis was undertaken using the Screener® software package (Genedata, Switzerland).
GCN2 kinase, sequence (Q9P2K8 whole entry): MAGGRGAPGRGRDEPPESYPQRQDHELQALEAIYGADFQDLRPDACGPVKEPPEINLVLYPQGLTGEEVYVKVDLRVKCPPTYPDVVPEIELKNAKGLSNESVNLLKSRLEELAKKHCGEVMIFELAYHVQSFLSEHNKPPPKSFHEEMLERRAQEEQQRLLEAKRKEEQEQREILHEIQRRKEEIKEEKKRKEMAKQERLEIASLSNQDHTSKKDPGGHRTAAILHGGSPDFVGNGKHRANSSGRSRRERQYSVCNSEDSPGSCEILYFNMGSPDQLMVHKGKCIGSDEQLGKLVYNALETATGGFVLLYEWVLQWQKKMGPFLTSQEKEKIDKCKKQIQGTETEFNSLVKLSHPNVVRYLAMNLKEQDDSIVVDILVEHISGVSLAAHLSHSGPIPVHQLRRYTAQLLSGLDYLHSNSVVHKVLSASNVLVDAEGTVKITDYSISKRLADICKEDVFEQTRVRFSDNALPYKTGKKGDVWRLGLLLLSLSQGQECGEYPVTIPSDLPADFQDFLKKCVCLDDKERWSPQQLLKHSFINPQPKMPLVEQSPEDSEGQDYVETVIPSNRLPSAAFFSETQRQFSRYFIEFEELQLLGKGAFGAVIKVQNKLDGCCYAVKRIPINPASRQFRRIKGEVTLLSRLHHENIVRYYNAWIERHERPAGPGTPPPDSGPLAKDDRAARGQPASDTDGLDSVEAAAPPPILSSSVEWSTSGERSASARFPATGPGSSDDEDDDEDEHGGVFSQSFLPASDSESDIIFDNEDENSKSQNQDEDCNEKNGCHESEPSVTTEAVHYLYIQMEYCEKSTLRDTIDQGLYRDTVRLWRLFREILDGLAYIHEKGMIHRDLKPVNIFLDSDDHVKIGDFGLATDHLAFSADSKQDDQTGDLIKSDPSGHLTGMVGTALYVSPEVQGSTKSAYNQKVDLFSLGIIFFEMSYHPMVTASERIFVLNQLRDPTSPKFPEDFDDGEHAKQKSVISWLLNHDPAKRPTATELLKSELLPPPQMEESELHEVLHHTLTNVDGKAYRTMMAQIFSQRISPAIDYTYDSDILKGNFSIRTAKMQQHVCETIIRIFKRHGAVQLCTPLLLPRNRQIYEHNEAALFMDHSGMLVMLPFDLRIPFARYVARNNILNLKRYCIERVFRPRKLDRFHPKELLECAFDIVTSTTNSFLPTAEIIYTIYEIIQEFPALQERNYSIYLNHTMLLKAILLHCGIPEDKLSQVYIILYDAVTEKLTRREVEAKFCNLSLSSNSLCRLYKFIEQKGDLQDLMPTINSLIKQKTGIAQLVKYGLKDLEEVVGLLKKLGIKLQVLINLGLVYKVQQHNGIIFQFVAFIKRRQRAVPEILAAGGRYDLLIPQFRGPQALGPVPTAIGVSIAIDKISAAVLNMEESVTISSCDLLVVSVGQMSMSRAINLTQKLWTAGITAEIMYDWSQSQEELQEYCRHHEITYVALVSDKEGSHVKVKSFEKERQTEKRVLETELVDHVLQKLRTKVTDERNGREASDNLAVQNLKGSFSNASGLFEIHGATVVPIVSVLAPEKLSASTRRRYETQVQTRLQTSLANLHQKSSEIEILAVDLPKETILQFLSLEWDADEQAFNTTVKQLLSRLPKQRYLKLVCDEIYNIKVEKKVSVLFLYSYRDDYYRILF
Molecule `O=C(O)C1CC(F)CN(c2ccnc(-c3cnc4ccc(C(F)(F)F)cn34)n2)C1` (stereo not drawn) [I-206, 5-fluoro-1-[2-(6-trifluoromethyl-imidazo[1,2-a]pyridin-3-yl)-pyrimidin-4-yl]-piperidine-3-carboxylic acid] yielded an IC50 of 10 to 100 nM. With `CC(C)(C)OC(=O)N1CCN(c2ccnc(-c3cnc4ccc(C(F)(F)F)cn34)n2)CC1C(N)=O` (stereo not drawn) [I-207, tert-butyl 2-carbamoyl-4-(2-(6-(trifluoromethyl)imidazo[1,2-a]pyridin-3-yl)pyrimidin-4-yl)piperazine-1-carboxylate] the figure was 100 to 1000 nM; with `CC(C)(C)OC(=O)C1(O)CCCN(c2ccnc(-c3cnc4ccc(C(F)(F)F)cn34)n2)C1` (stereo not drawn) [I-212, tert-butyl 3-hydroxy-1-(2-(6-(trifluoromethyl)imidazo[1,2-a]pyridin-3-yl)pyrimidin-4-yl)piperidine-3-carboxylate], 100 to 1000 nM; with `O=C(O)C1(O)CCCN(c2ccnc(-c3cnc4ccc(C(F)(F)F)cn34)n2)C1` (stereo not drawn) [I-214, 3-hydroxy-1-(2-(6-(trifluoromethyl)imidazo[1,2-a]pyridin-3-yl)pyrimidin-4-yl)piperidine-3-carboxylic acid], 100 to 1000 nM.

For the molecule `NC(=O)C1CN(c2ccnc(-c3cnc4ccc(C(F)(F)F)cn34)n2)C1` [I-228, 1-(2-(6-(trifluoromethyl)imidazo[1,2-a]pyridin-3-yl)pyrimidin-4-yl)azetidine-3-carboxamide], the IC50 fell in the range of 100 to 1000 nM.

With `NC(=O)C1CC(F)CN(c2ccnc(-c3cnc4ccc(C(F)(F)F)cn34)n2)C1` (stereo not drawn) [I-229, 5-fluoro-1-(2-(6-(trifluoromethyl)imidazo[1,2-a]pyridin-3-yl)pyrimidin-4-yl)piperidine-3-carboxamide], the half-maximal inhibitory concentration (IC50) is less than 10 nM. With `NC(=O)CC1CN(c2ccnc(-c3cnc4ccc(C(F)(F)F)cn34)n2)C1` [I-230, 2-(1-(2-(6-(trifluoromethyl)imidazo[1,2-a]pyridin-3-yl)pyrimidin-4-yl)azetidin-3-yl)acetamide] the figure was 10 to 100 nM; with `CC1CN(c2ccnc(-c3cnc4ccc(C(F)(F)F)cn34)n2)CC(C)N1` (stereo not drawn) [I-231, 3-(4-(3,5-dimethylpiperazin-1-yl)pyrimidin-2-yl)-6-(trifluoromethyl)imidazo[1,2-a]pyridine], 100 to 1000 nM; with `CC1CN(c2ccnc(-c3cnc4ccc(C(F)(F)F)cn34)n2)CC(C)N1C1COC1` (stereo not drawn) [I-234, 3-(4-(3,5-dimethyl-4-(oxetan-3-yl)piperazin-1-yl)pyrimidin-2-yl)-6-(trifluoromethyl)imidazo[1,2-a]pyridine], 10 to 100 nM. `N[C@H]1C[C@H](O)CN(c2ccnc(-c3cnc4ccc(C(F)(F)F)cn34)n2)C1` [I-239, (3 S,5S)-5-amino-1-(2-(6-(trifluoromethyl)imidazo[1,2-a]pyridin-3-yl)pyrimidin-4-yl)piperidin-3-ol] showed an IC50 of 100 to 1000 nM. As for `O=C(CO)N[C@H]1C[C@H](O)CN(c2ccnc(-c3cnc4ccc(C(F)(F)F)cn34)n2)C1` [I-253, 2-hydroxy-N-((3S,5S)-5-hydroxy-1-(2-(6-(trifluoromethyl)imidazo[1,2-a]pyridin-3-yl)pyrimidin-4-yl)piperidin-3-yl)acetamide], the figure is 100 to 1000 nM; as for `CC(O)C(=O)N[C@H]1C[C@H](O)CN(c2ccnc(-c3cnc4ccc(C(F)(F)F)cn34)n2)C1` (stereo partly drawn) [I-254, 2-hydroxy-N-((3S,5S)-5-hydroxy-1-(2-(6-(trifluoromethyl)imidazo[1,2-a]pyridin-3-yl)pyrimidin-4-yl)piperidin-3-yl)propanamide], 100 to 1000 nM. With `C[C@@H]1C[C@@H](N)CN(c2ccnc(-c3cnc4ccc(Cl)cn34)n2)C1` [I-256, (3R,5R)-1-(2-(6-chloroimidazo[1,2-a]pyridin-3-yl)pyrimidin-4-yl)-5-methylpiperidin-3-amine] the figure was 100 to 1000 nM. With `O=C(N[C@H]1C[C@H](O)CN(c2ccnc(-c3cnc4ccc(C(F)(F)F)cn34)n2)C1)c1cn[nH]c1` [I-257, N-((3S,5S)-5-hydroxy-1-(2-(6-(trifluoromethyl)imidazo[1,2-a]pyridin-3-yl)pyrimidin-4-yl)piperidin-3-yl)-1H-pyrazole-4-carboxamide] the figure was 100 to 1000 nM; with `COCCN1CCN(c2ccnc(-c3cnc4ccc(C(F)(F)F)cn34)n2)CC1C(N)=O` (stereo not drawn) [I-258, 1-(2-methoxyethyl)-4-(2-(6-(trifluoromethyl)imidazo[1,2-a]pyridin-3-yl)pyrimidin-4-yl)piperazine-2-carboxamide], 10 to 100 nM. In turn, `C[C@H]1CN(c2ccnc(-c3cnc4ccc(C(F)(F)F)cn34)n2)C[C@@H](C(N)=O)O1` [I-264, (2S,6S)-6-methyl-4-(2-(6-(trifluoromethyl)imidazo[1,2-a]pyridin-3-yl)pyrimidin-4-yl)morpholine-2-carboxamide] returned an IC50 of less than 10 nM. For `C[C@@H]1CN(c2ccnc(-c3cnc4ccc(C(F)(F)F)cn34)n2)C[C@@H](C(N)=O)O1` [I-265, (2S,6R)-6-methyl-4-(2-(6-(trifluoromethyl)imidazo[1,2-a]pyridin-3-yl)pyrimidin-4-yl)morpholine-2-carboxamide], the IC50 fell in the range of 10 to 100 nM. With `CC(=O)N1C(C)CN(c2ccnc(-c3cnc4ccc(Cl)cn34)n2)CC1c1c[nH]nc1C` (stereo not drawn) [I-276, 1-(4-(2-(6-chloroimidazo[1,2-a]pyridin-3-yl)pyrimidin-4-yl)-2-methyl-6-(3-methyl-1H-pyrazol-4-yl)piperazin-1-yl)ethan-1-one] the figure was 100 to 1000 nM. With `CC(C)(C)OC(=O)N1CC2(C1)CN(c1ccnc(-c3cnc4ccc(C(F)(F)F)cn34)n1)CC(C)(C)O2` [I-292, tert-butyl 6,6-dimethyl-8-(2-(6-(trifluoromethyl)imidazo[1,2-a]pyridin-3-yl)pyrimidin-4-yl)-5-oxa-2,8-diazaspiro[3.5]nonane-2-carboxylate] the figure was 100 to 1000 nM; with `O=C1NC[C@]12CCCN(c1ccnc(-c3cnc4ccc(C(F)(F)F)cn34)n1)C2` [I-296, (S)-6-(2-(6-(trifluoromethyl)imidazo[1,2-a]pyridin-3-yl)pyrimidin-4-yl)-2,6-diazaspiro[3.5]nonan-1-one], 100 to 1000 nM. With `Clc1ccc2ncc(-c3nccc(N4CCCC5(CNC5)C4)n3)n2c1` [I-299, 6-(2-(6-chloroimidazo[1,2-a]pyridin-3-yl)pyrimidin-4-yl)-2,6-diazaspiro[3.5]nonane] the figure was 100 to 1000 nM; with `CN(C)C(=O)COCC1CN(c2ccnc(-c3cnc4ccc(C(F)(F)F)cn34)n2)CC(C)(C)O1` (stereo not drawn) [I-305, 2-((6,6-dimethyl-4-(2-(6-(trifluoromethyl)imidazo[1,2-a]pyridin-3-yl)pyrimidin-4-yl)morpholin-2-yl)methoxy)-N,N-dimethylacetamide], 100 to 1000 nM; with `CC(C)(C(N)=O)C1CCCN(c2ccnc(-c3cnc4ccc(Cl)cn34)n2)C1` (stereo not drawn) [I-309, 2-(1-(2-(6-chloroimidazo[1,2-a]pyridin-3-yl)pyrimidin-4-yl)piperidin-3-yl)-2-methylpropanamide], 100 to 1000 nM. For `C[C@H]1C[C@@H](N=S(C)(C)=O)CN(c2ccnc(-c3cnc4ccc(S(C)(=O)=O)cn34)n2)C1` [I-312, dimethyl(((3R,5S)-5-methyl-1-(2-(6-(methylsulfonyl)imidazo[1,2-a]pyridin-3-yl)pyrimidin-4-yl)piperidin-3-yl)imino)-λ6-sulfanone], the half-maximal inhibitory concentration (IC50) is 100 to 1000 nM.

What is called IC50 is the concentration needed to halve the response being measured. The low end stands for greater potency, the high end for weaker potency.
